Reference: patent US8378104B2 (OSI Pharmaceuticals, LLC, priority 2010, dated 2013)
Structures can show the parent of a compound that is named as a salt.

target: T1, TAK1-TAB1 fusion protein (Homo sapiens, UniProt O43318); assay: TAK1 biochemical assay (AlphaScreen, GST-MAP2K7 substrate); settings: not given
T1 construct: purchased Carna
T1 sequence (O43318 with tags, fused parts or gaps limits assumed): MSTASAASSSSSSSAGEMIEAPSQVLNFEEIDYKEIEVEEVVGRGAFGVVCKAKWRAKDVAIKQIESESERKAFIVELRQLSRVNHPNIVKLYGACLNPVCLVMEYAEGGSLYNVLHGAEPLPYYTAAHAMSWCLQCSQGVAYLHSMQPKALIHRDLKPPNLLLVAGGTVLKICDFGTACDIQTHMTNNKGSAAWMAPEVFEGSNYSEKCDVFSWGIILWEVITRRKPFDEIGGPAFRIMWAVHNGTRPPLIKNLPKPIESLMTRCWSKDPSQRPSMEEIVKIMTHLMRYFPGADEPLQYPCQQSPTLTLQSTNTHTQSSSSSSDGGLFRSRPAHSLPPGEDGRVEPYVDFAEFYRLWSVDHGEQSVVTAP

Compound	IC50 [nM]
CC(=O)N1CCC(n2cc(-c3cnc(N)c4oc(C5=CCNCC5)cc34)cn2)CC1 [Example 95, 1-(4-{4-[7-amino-2-(1,2,3,6-tetrahydropyridin-4-yl)furo[2,3-c]pyridin-4-yl]-1H-pyrazol-1-yl}piperidin-1-yl)ethanone hydrochloride]	100 to 1000

same assay, conditions: TAK1-TAB1 fusion protein, GST-MAP2K7 substrate; read-out: mean TAK1 IC50 (Col. A)

Compound	IC50 [nM]
Nc1ncc(-c2cnn(C3CCNCC3)c2)c2cc(C3CCNCC3)oc12 [Example 54, 2-(piperidin-4-yl)-4-[1-(piperidin-4-yl)-1H-pyrazol-4-yl]furo[2,3-c]pyridin-7-amine]	> 10000
Cn1cc(-c2cnc(N)c3oc(-c4ccccc4)cc23)cn1 [Example 56, 4-(1-methyl-1H-pyrazol-4-yl)-2-phenylfuro[2,3-d]pyridin-7-amine]	> 10000
CC1(C)OCC(Cn2cc(-c3cnc(N)c4oc(-c5cccc6cnccc56)cc34)cn2)O1 (centres unmarked) [Example 61, 4-{1-[(2,2-dimethyl-1,3-dioxolan-4-yl)methyl]-1H-pyrazol-4-yl}-2-(isoquinolin-5-yl)furo[2,3-c]pyridin-7-amine]	1000 to 10000
Nc1ncc(-c2cnn(CC(O)CO)c2)c2cc(-c3cccc4cnccc34)oc12 (centres unmarked) [Example 66, 3-{4-[7-amino-2-(isoquinolin-5-yl)furo[2,3-c]pyridin-4-yl]-1H-pyrazol-1-yl}propane-1,2-diol]	1000 to 10000
Nc1ncc(-c2cnn(CCO)c2)c2cc(-c3cccc4cnccc34)oc12 [Example 67, 2-{4-[7-amino-2-(isoquinolin-5-yl)furo[2,3-c]pyridin-4-yl]-1H-pyrazol-1-yl}ethanol]	1000 to 10000
CCn1cc(-c2cnc(N)c3oc(-c4cccc5cnccc45)cc23)cn1 [Example 71, 4-(1-ethyl-1H-pyrazol-4-yl)-2-(isoquinolin-5-yl)furo[2,3-c]pyridin-7-amine]	1000 to 10000
Nc1ncc(-c2cnn(C3CCCCC3)c2)c2cc(-c3cccc4cnccc34)oc12 [Example 73, 4-(1-cyclohexyl-1H-pyrazol-4-yl)-2-(isoquinolin-5-yl)furo[2,3-c]pyridin-7-amine]	1000 to 10000
CC(=O)N1CCC(n2cc(-c3cnc(N)c4oc(-c5ccc6c(c5)C(=O)NC6=O)cc34)cn2)CC1 [Example 100, 5-{4-[1-(1-acetylpiperidin-4-yl)-1H-pyrazol-4-yl]-7-aminofuro[2,3-c]pyridin-2-yl}-1H-isoindole-1,3(2H)-dione]	1000 to 10000
CC(=O)N1CCC(n2cc(-c3cnc(N)c4oc(-c5cccc(S(N)(=O)=O)c5)cc34)cn2)CC1 [Example 102, 3-{4-[1-(1-acetylpiperidin-4-yl)-1H-pyrazol-4-yl]-7-aminofuro[2,3-c]pyridin-2-yl}benzenesulfonamide]	1000 to 10000
CC(=O)N1CCC(n2cc(-c3cnc(N)c4oc(-c5ccc6c(c5)CC(=O)N6)cc34)cn2)CC1 [Example 103, 5-{4-[1-(1-acetylpiperidin-4-yl)-1H-pyrazol-4-yl]-7-aminofuro[2,3-c]pyridin-2-yl}-1,3-dihydro-2H-indol-2-one]	1000 to 10000
CC(=O)N1CCC(n2cc(-c3cnc(N)c4oc(-c5ccc(N)c(C#N)c5)cc34)cn2)CC1 [Example 104, 5-{4-[1-(1-acetylpiperidin-4-yl) 1H-pyrazol-4-yl]-7-aminofuro[2,3-c]pyridin-2-yl}-2-aminobenzonitrile]	1000 to 10000
CC(=O)N1CCC(n2cc(-c3cnc(N)c4oc(-c5ccc(Cl)c(C(=O)O)c5)cc34)cn2)CC1 [Example 110, 5-{4-[1-(1-acetylpiperidin-4-yl)-1H-pyrazol-4-yl]-7-aminofuro[2,3-c]pyridin-2-yl}-2-chlorobenzoic acid hydrochloride]	1000 to 10000
CC(=O)N1CCC(n2cc(-c3cnc(N)c4oc(-c5cccc(N(C)C)c5)cc34)cn2)CC1 [Example 116]	1000 to 10000
CC(=O)N1CCC(n2cc(-c3cnc(N)c4oc(-c5ccc(N6CCCCC6)nc5)cc34)cn2)CC1 [Example 118, 1-[4-(4-{7-amino-2-[6-(piperidin-1-yl)pyridin-3-yl]furo[2,3-c]pyridin-4-yl}-1H-pyrazol-1-yl)piperidin-1-yl]ethanone]	> 10000
CC(=O)N1CCC(n2cc(-c3cnc(N)c4oc(-c5ccc([N+](=O)[O-])nc5)cc34)cn2)CC1 [Example 119, 1-(4-{4-[7-amino-2-(6-nitropyridin-3-yl)furo[2,3-c]pyridin-4-yl]-1H-pyrazol-1-yl}piperidin-1-yl)ethanone]	1000 to 10000
CC(=O)N1CCC(n2cc(-c3cnc(N)c4oc(-c5ccc(NS(C)(=O)=O)cc5)cc34)cn2)CC1 [Example 121, N-(4-{4-[1-(1-acetylpiperidin-4-yl)-1H-pyrazol-4-yl]-7-aminofuro[2,3-c]pyridin-2-yl}phenyl)methanesulfonamide]	1000 to 10000

The next lines start with the values.

IC50 [nM]	Compound
100 to 1000	Nc1ncc(-c2cnn(C3CCNCC3)c2)c2cc(-c3cccc4c3sc3ccccc34)oc12 [Example 37, 2-(dibenzo[b,d]thiophen-4-yl)-4-[1-(piperidin-4-yl)-1H-pyrazol-4-yl]furo[2,3-c]pyridine-7-amine]
100 to 1000	Nc1ncc(-c2cnn(C3CCNCC3)c2)c2cc(-c3ccc4[nH]cnc4c3)oc12 [Example 39, 2-(1H-benzimidazol-5-yl)-4-[1-(piperidin-4-yl)-1H-pyrazol-4-yl]furo[2,3-c]pyridine-7-amine]
1000 to 10000	Nc1ncc(-c2cnn(C3CCNCC3)c2)c2cc(-c3cccc(-c4nnn[nH]4)c3)oc12 [Example 40, 4-[1-(piperidin-4-yl)-1H-pyrazol-4-yl]-2-[3-(1H-tetrazol-5-yl)phenyl]furo[2,3-c]pyridine-7-amine]
100 to 1000	Nc1ncc(-c2cnn(C3CCNCC3)c2)c2cc(-c3cccc4cc[nH]c34)oc12 [Example 42, 2-(1H-indol-7-yl)-4-[1-(piperidin-4-yl)-1H-pyrazol-4-yl]furo[2,3-c]pyridin-7-amine]
100 to 1000	Nc1cc(-c2cc3c(-c4cnn(C5CCNCC5)c4)cnc(N)c3o2)cnc1Cl [Example 43, 2-(5-amino-6-chloropyridin-3-yl)-4-[1-(piperidin-4-yl)-1H-pyrazol-4-yl]furo[2,3-c]pyridine-7-amine]
1000 to 10000	Nc1ncc(-c2cnn(C3CCNCC3)c2)c2cc(-c3cccc4c3NC(=O)C4)oc12 [Example 44, 7-{7-amino-4-[1-(piperidin-4-yl)-1H-pyrazol-4-yl]furo[2,3-c]pyridine-2-yl}-1,3-dihydro-2H-indol-2-one]
100 to 1000	Nc1ncc(-c2cnn(C3CCNCC3)c2)c2cc(-c3cccc4cn[nH]c34)oc12 [Example 45, 2-(1H-indazol-7-yl)-4-[1-(piperidin-4-yl)-1H-pyrazol-4-yl]furo[2,3-c]pyridin-7-amine]
1000 to 10000	Nc1ncc(-c2cnn(C3CCNCC3)c2)c2cc(-c3cccc4nn[nH]c34)oc12 [Example 46, 2-(1H-benzotriazol-7-yl)-4-[1-(piperidin-4-yl)-1H-pyrazol-4-yl]furo[2,3-c]pyridine-7-amine]
1000 to 10000	COC(=O)c1cc2cc(-c3cc4c(-c5cnn(C6CCNCC6)c5)cnc(N)c4o3)ccc2s1 [Example 47, methyl 5-{7-amino-4-[1-(piperidin-4-yl)-1H-pyrazol-4-yl]furo[2,3-c]pyridine-2-yl}-1-benzothiophene-2-carboxylate]
100 to 1000	COC(=O)c1cc2cccc(-c3cc4c(-c5cnn(C6CCNCC6)c5)cnc(N)c4o3)c2s1 [Example 48, methyl 7-{7-amino-4-[1-(piperidin-4-yl)-1H-pyrazol-4-yl]furo[2,3-c]pyridine-2-yl}-1-benzothiophene-2-carboxylate]
1000 to 10000	Nc1ncc(-c2cnn(C3CCNCC3)c2)c2cc(C3=CCNCC3)oc12 [Example 49, 4-[1-(piperidin-4-yl)-1H-pyrazol-4-yl]-2-(1,2,3,6-tetrahydropyridin-4-yl)furo[2,3-c]pyridin-7-amine dihydrochloride]
1000 to 10000	CN1CCC(n2cc(-c3cnc(N)c4oc(-c5cccc6ccsc56)cc34)cn2)CC1 [Example 57, 2-(1-benzothiophen-7-yl)-4-[1-(1-methylpiperidin-4-yl)-1H-pyrazol-4-yl]furo[2,3-c]pyridin-7-amine]
1000 to 10000	CCC(=O)N1CCC(n2cc(-c3cnc(N)c4oc(-c5cccc6ccsc56)cc34)cn2)CC1 [Example 58, 1-(4-{4-[7-amino-2-(1-benzothiophen-7-yl)furo[2,3-c]pyridin-4-yl]-1H-pyrazol-1-yl}piperidin-1-yl)propan-1-one]
1000 to 10000	CCOC(=O)Cn1cc(-c2cnc(N)c3oc(-c4cccc5cnccc45)cc23)cn1 [Example 59, ethyl {4-[7-amino-2-(isoquinolin-5-yl)furo[2,3-c]pyridin-4-yl]-1H-pyrazol-1-yl}acetate]
100 to 1000	Nc1ncc(-c2cnn(C3CNC3)c2)c2cc(-c3cccc4cnccc34)oc12 [Example 64, 4-[1-(azetidin-3-yl)-1H-pyrazol-4-yl]-2-(isoquinolin-5-yl)furo[2,3-c]pyridin-7-amine]
100 to 1000	Nc1ncc(-c2cnn(C3CC=CC3)c2)c2cc(-c3cccc4cnccc34)oc12 [Example 72, 4-[1-(cyclopent-3-en-1-yl)-1H-pyrazol-4-yl]-2-(isoquinolin-5-yl)furo[2,3-c]pyridin-7-amine]
100 to 1000	C[C@]1(O)CC[C@H](n2cc(-c3cnc(N)c4oc(-c5cccc6cnccc56)cc34)cn2)CC1 [Example 75, trans-4-{4-[7-amino-2-(isoquinolin-5-yl)furo[2,3-c]pyridin-4-yl]-1H-pyrazol-1-yl}-1-methylcyclohexanol]
100 to 1000	CC(=O)N1CCC(n2cc(-c3cnc(N)c4oc(-c5ccc6cn[nH]c6c5)cc34)cn2)CC1 [Example 99, 1-(4-{4-[7-amino-2-(1H-indazol-6-yl)furo[2,3-c]pyridin-4-yl]-1H-pyrazol-1-yl}piperidin-1-yl)ethanone]
